Assay results taken from ChEMBL document CHEMBL2401682, “Evaluation of Jatropha isabelli natural products and their synthetic analogs as potential antimalarial therapeutic agents” (Eur J Med Chem, 2013).
≈ marks a conversion by molar mass, not a printed value.

Assays:
[1] = Solubility of the compound; format: physicochemical
[2] = tested on: HEK293; assay: Cytotoxicity against HEK293 cells after 72 hrs by celltiter-glo assay; format: cell-based; settings: Homo sapiens, HEK293, 72 h
[3] = tested on: BJ; assay: Cytotoxicity against human BJ cells after 72 hrs by celltiter-glo assay; format: cell-based
[4] = tested on: HepG2; assay: Cytotoxicity against human HepG2 cells after 72 hrs by celltiter-glo assay; format: cell-based; settings: HepG2, 72 h
[5] = tested on: Raji; assay: Cytotoxicity against human Raji cells after 72 hrs by celltiter-glo assay; format: cell-based
[6] = tested on: Plasmodium falciparum; assay: Antimalarial activity against chloroquine and pyrimethamine-resistant Plasmodium falciparum K1 infected in O-positive erythrocytes assessed as parasite growth inhibition after 72 hrs by DNA staining-based assay; format: functional, organism-based; settings: K1, 72 h
[7] = tested on: Plasmodium falciparum; assay: Antimalarial activity against chloroquine-sensitive Plasmodium falciparum 3D7 infected in O-positive erythrocytes assessed as parasite growth inhibition after 72 hrs by DNA staining-based assay; format: functional, organism-based; settings: 3D7, 72 h
[8] = Permeability of the compound by PAMPA; format: ADME; settings: read-out: permeability
[9] = Plasma protein binding in human; format: ADME, cell-free; settings: read-out: PPB (converted)
[10] = Plasma protein binding in mouse; format: ADME, cell-free; settings: read-out: PPB (converted)
[11] = Half life in human plasma; format: ADME, cell-free
[12] = Half life in mouse plasma; format: ADME, cell-free
[13] = Half life in mouse liver microsomes; format: ADME, Microsome
[14] = Half life in human liver microsomes; format: ADME, Microsome
[15] = Solubility of the compound at pH 3 to 7; format: physicochemical; settings: buffer
[16] = Efflux ratio of permeability in human Caco2 cells; format: ADME, cell-based; settings: Caco-2

Compound	solubility [1] [µg/mL]	EC50 [2] [µM]	EC50 [3] [µM]	EC50 [4] [µM]	EC50 [5] [µM]	EC50 [6] [µM]	EC50 [7] [µM]	Papp [8] [×10⁻⁶ cm/s]	fraction unbound [9]	fraction unbound [10]	half-life [11] [min]	half-life [12] [min]	half-life [13] [min]	half-life [14] [min]	solubility [15] [µg/mL]	efflux ratio [16]
CC1=C2CC(C)(C)/C(c3ccc(C(F)(F)F)cc3)=C/C(=O)/C(C)=C\C3=C[C@H](C)C[C@]3(O2)C1=O	17 (≈ 37.2 µM)	26	26	26	26	5.88	6.08	106								
CC1=C2CC(C)(C)/C=C/C(=O)/C(C)=C\C3=C[C@H](C)C[C@]3(O2)C1=O [JATROPHONE]		6.09	1.93	6.09	26	5.41	15	525	0.26	0.26	7.8	12.6	5.4	6	20 (≈ 64 µM)	1.5
